Source: PubChem BioAssay AID1963867 (Molecular Pharmacology Branch, DTP, NCI, 2024)

System: KRAS-mutant PDC tumor spheroid with HUVEC/MSC, viability
Assay: Anticancer human tumor 327498-153-R-J2-PDC patient-derived uterine carcinosarcoma cell line growth inhibition [KRAS2]
Conditions: for IC50: curve of first compound; for viability, T/C: stronger effect = lower value
Method in brief: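 Combination screen of spheroid viability in tumor-cell co-cultures with endothelial (HUVEC) and mesenchymal stem cell stroma. Each agent was tested in half-log dilutions, topping at clinical Cmax or at 10 microM without a known Cmax.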

[1] = second compound 0.1 µM, first compound 0.000316 µM
[2] = second compound 0.1 µM, first compound 0.001 µM
[3] = second compound 0.1 µM, first compound 0.00316 µM
[4] = second compound 0.1 µM, first compound 0.01 µM
[5] = second compound 0.1 µM, first compound 0.0316 µM
[6] = second compound 0.316 µM, first compound 0.000316 µM
[7] = second compound 0.316 µM, first compound 0.001 µM
[8] = second compound 0.316 µM, first compound 0.00316 µM
[9] = second compound 0.316 µM, first compound 0.01 µM
[10] = second compound 0.316 µM, first compound 0.0316 µM
[11] = second compound 1 µM, first compound 0.000316 µM
[12] = second compound 1 µM, first compound 0.001 µM
[13] = second compound 1 µM, first compound 0.00316 µM
[14] = second compound 1 µM, first compound 0.01 µM
[15] = second compound 1 µM, first compound 0.0316 µM
[16] = second compound 3.16 µM, first compound 0.000316 µM
[17] = second compound 3.16 µM, first compound 0.001 µM
[18] = second compound 3.16 µM, first compound 0.00316 µM
[19] = second compound 3.16 µM, first compound 0.01 µM
[20] = second compound 3.16 µM, first compound 0.0316 µM
[21] = second compound 10 µM, first compound 0.000316 µM
[22] = second compound 10 µM, first compound 0.001 µM
[23] = second compound 10 µM, first compound 0.00316 µM
[24] = second compound 10 µM, first compound 0.01 µM
[25] = second compound 10 µM, first compound 0.0316 µM
[26] = second compound 0.1 µM, first compound 0.1 µM
[27] = second compound 0.316 µM, first compound 0.1 µM
[28] = second compound 1 µM, first compound 0.1 µM
[29] = second compound 3.16 µM, first compound 0.1 µM
[30] = second compound 10 µM, first compound 0.1 µM
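Also: spheroids exposed to agents for seven days before reading.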
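For viability, T/C in this document: 100% = DMSO vehicle wells so lower means fewer viable cells.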

In the case of `CC(=O)Nc1cccc(-n2c(=O)n(C3CC3)c(=O)c3c(Nc4ccc(I)cc4F)n(C)c(=O)c(C)c32)c1` + CC1OCC2(CCN(c3cnc(Sc4ccnc(N)c4Cl)c(N)n3)CC2)C1N, the IC50 (second compound 0.1 µM) is reported as 1.66 nM, the IC50 (second compound 0.316 µM) is reported as 0.493 nM and the IC50 (second compound 1 µM) is reported as < 0.1 nM. For the same molecule, the IC50 (second compound 3.16 µM) was < 0.1 nM, the IC50 (second compound 10 µM) was < 0.1 nM and the viability, T/C (second compound 0.1 µM, first compound 0.0001 µM) was 75.2%. It also gave a viability, T/C [1] of 58.4%, a viability, T/C [2] of 50.2% and a viability, T/C [3] of 46.5%. The viability, T/C [4] was 44.7%, the viability, T/C [5] was 26.3% and the viability, T/C (second compound 0.316 µM, first compound 0.0001 µM) was 52.7%. It also gave a viability, T/C [6] of 52.4%, a viability, T/C [7] of 48.2% and a viability, T/C [8] of 40.8%. For the same molecule, the viability, T/C [9] was 35%, the viability, T/C [10] was 22.8% and the viability, T/C (second compound 1 µM, first compound 0.0001 µM) was 41%. It also gave a viability, T/C [11] of 35.2%, a viability, T/C [12] of 34.9% and a viability, T/C [13] of 29.7%. It also gave a viability, T/C [14] of 26.8%, a viability, T/C [15] of 16.1% and a viability, T/C (second compound 3.16 µM, first compound 0.0001 µM) of 31.1%. The viability, T/C [16] was 26.9%, the viability, T/C [17] was 22.1% and the viability, T/C [18] was 22.1%. It also gave a viability, T/C [19] of 17.2%, a viability, T/C [20] of 13.1% and a viability, T/C (second compound 10 µM, first compound 0.0001 µM) of 22.8%. It also gave a viability, T/C [21] of 21.3%, a viability, T/C [22] of 21.6% and a viability, T/C [23] of 15.8%. For the same molecule, the viability, T/C [24] was 13.9% and the viability, T/C [25] was 11.3%.

For `CC(C)n1nc(-c2ccc3oc(N)nc3c2)c2c(N)ncnc21` + CC1OCC2(CCN(c3cnc(Sc4ccnc(N)c4Cl)c(N)n3)CC2)C1N, the IC50 (second compound 0.1 µM) was 2.17 nM, the IC50 (second compound 0.316 µM) was 0.756 nM and the IC50 (second compound 1 µM) was < 0.316 nM. For the same molecule, the IC50 (second compound 3.16 µM) was < 0.316 nM, the IC50 (second compound 10 µM) was < 0.316 nM and the viability, T/C [1] was 70.3%. For the same molecule, the viability, T/C [2] was 72.7%, the viability, T/C [3] was 38.3% and the viability, T/C [4] was 18.5%. For the same molecule, the viability, T/C [5] was 8.54%, the viability, T/C [26] was 5.56% and the viability, T/C [6] was 61.8%. It also gave a viability, T/C [7] of 46%, a viability, T/C [8] of 28.2% and a viability, T/C [9] of 14.3%. It also gave a viability, T/C [10] of 6.36%, a viability, T/C [27] of 4.27% and a viability, T/C [11] of 41.2%. It also gave a viability, T/C [12] of 32.8%, a viability, T/C [13] of 20% and a viability, T/C [14] of 10.4%. It also gave a viability, T/C [15] of 6.01%, a viability, T/C [28] of 3.72% and a viability, T/C [16] of 31.4%. For the same molecule, the viability, T/C [17] was 22.6%, the viability, T/C [18] was 13.8% and the viability, T/C [19] was 8.15%. For the same molecule, the viability, T/C [20] was 4.67%, the viability, T/C [29] was 3.18% and the viability, T/C [21] was 22.9%. It also gave a viability, T/C [22] of 19.6%, a viability, T/C [23] of 11.7% and a viability, T/C [24] of 7.42%. It also gave a viability, T/C [25] of 4.21% and a viability, T/C [30] of 3.29%.

For `CC1(C)CCC(CN2CCN(c3ccc(C(=O)NS(=O)(=O)c4ccc(NCC5CCOCC5)c([N+](=O)[O-])c4)c(Oc4cnc5[nH]ccc5c4)c3)CC2)=C(c2ccc(Cl)cc2)C1` + CC1OCC2(CCN(c3cnc(Sc4ccnc(N)c4Cl)c(N)n3)CC2)C1N, the IC50 (second compound 0.1 µM) was 1920 nM, the IC50 (second compound 0.316 µM) was 1120 nM and the IC50 (second compound 1 µM) was < 31.6 nM. For the same molecule, the IC50 (second compound 3.16 µM) was < 31.6 nM, the IC50 (second compound 10 µM) was < 31.6 nM and the viability, T/C [5] was 64.6%. The viability, T/C [26] was 67.3%, the viability, T/C (second compound 0.1 µM, first compound 0.316 µM) was 73.2% and the viability, T/C (second compound 0.1 µM, first compound 1 µM) was 66%. It also gave a viability, T/C (second compound 0.1 µM, first compound 3.16 µM) of 37.6%, a viability, T/C (second compound 0.1 µM, first compound 10 µM) of 3.49% and a viability, T/C [10] of 53.7%. For the same molecule, the viability, T/C [27] was 48.5%, the viability, T/C (second compound 0.316 µM, first compound 0.316 µM) was 51.1% and the viability, T/C (second compound 0.316 µM, first compound 1 µM) was 56.4%. It also gave a viability, T/C (second compound 0.316 µM, first compound 3.16 µM) of 28.6%, a viability, T/C (second compound 0.316 µM, first compound 10 µM) of 1.66% and a viability, T/C [15] of 42%. For the same molecule, the viability, T/C [28] was 42.7%, the viability, T/C (second compound 1 µM, first compound 0.316 µM) was 42% and the viability, T/C (second compound 1 µM, first compound 1 µM) was 41%. The viability, T/C (second compound 1 µM, first compound 3.16 µM) was 25%, the viability, T/C (second compound 1 µM, first compound 10 µM) was 0.76% and the viability, T/C [20] was 32.6%. For the same molecule, the viability, T/C [29] was 33.3%, the viability, T/C (second compound 3.16 µM, first compound 0.316 µM) was 30.8% and the viability, T/C (second compound 3.16 µM, first compound 1 µM) was 25.9%. For the same molecule, the viability, T/C (second compound 3.16 µM, first compound 3.16 µM) was 15.6%, the viability, T/C (second compound 3.16 µM, first compound 10 µM) was 0.57% and the viability, T/C [25] was 23.6%. For the same molecule, the viability, T/C [30] was 28.6%, the viability, T/C (second compound 10 µM, first compound 0.316 µM) was 23.7% and the viability, T/C (second compound 10 µM, first compound 1 µM) was 25%. For the same molecule, the viability, T/C (second compound 10 µM, first compound 3.16 µM) was 15.4% and the viability, T/C (second compound 10 µM, first compound 10 µM) was 0.27%.
